{
  "source": "patent US7795390B2",
  "about": "“Biological substance nesfatin and its related substances and uses thereof” (Teijin Pharma Limited, priority 2005, dated 2010)",
  "molecules": {"B1": {"name": "leptin: Rat leptin: R & D Systems, 598-LP-01M; known to suppress food intake by intraventricular administration (protein)", "chain": "VPIHKVQDDTKTLIKTIVTRINDISHTQSVSARQRVTGLDFIPGLHPILSLSKMDQTLAVYQQILTSLPSQNVLQIAHDLENLRDLLHLLAFSKSCSLPQTRGLQKPESLDGVLEASLYSTEVVALSRLQGSLQDILQQLDLSPEC"}, "B2": {"name": "nesfatin-3: 231 residues, amino acid Nos. 190 to 420 of nesfatin (SEQ ID NO: 17), cell-free protein synthesis, Met added (protein, listed as Rattus norvegicus)", "chain": "EYLKTLSEEKRKEEEAKFAEMKRKHEDHPKVNHPGSKDQLKEVWEETDGLDPNDFDPKTFFKLHDVNNDGFLDEQELEALFTKELDKVYNPQNAEDDMIEMEEERLRMREHVMNEIDNNKDRLVTLEEFLRATEKKEFLEPDSWETLDQQQLFTEEELKEYESIIAIQESELKKKADELQKQKEELQRQHDHLEAQKQEYQQAVQQLEQKKFQQGIAPSGPAGELKFEPHT", "modifications": "N-terminal Met added"}, "B3": {"name": "nesfatin-2: 79-residue peptide, amino acid Nos. 109 to 187 of nesfatin (SEQ ID NO: 16) (peptide, listed as Rattus norvegicus)", "chain": "QEVGRLRMLIKAKLDALQDTGMNHHLLLKQFEHLNHQNPDTFESKDLDMLIKAATADLEQYDRTRHEEFKKYEMMKEHE"}, "B4": {"name": "nesfatin-2/3: portion of the sequence consisting of nesfatin-2 and nesfatin-3 (SEQ ID NO: 47), cell-free protein synthesis (protein, listed as Rattus norvegicus)", "chain": "QEVGRLRMLIKAKLDALQDTGMNHHLLLKQFEHLNHQNPDTFESKDLDMLIKAATADLEQYDRTRHEEFKKYEMMKEHERREYLKTLSEEKRKEEEAKFAEMKRKHEDHPKVNHPGSKDQLKEVWEETDGLDPNDFDPKTFFKLHDVNNDGFLDEQELEALFTKELDKVYNPQNAEDDMIEMEEERLRMREHVMNEIDNNKDRLVTLEEFLRATEKKEFLEPDSWETLDQQQLFTEEELKEYESIIAIQESELKKKADELQKQKEELQRQHDHLEAQKQEYQQAVQQLEQKKFQQGIAPSGPAGELKFEPHT"}},
  "key": {"ICR mice": {"tested_on": "ICR mice", "test": "Intraperitoneal administration of partial peptides of nesfatin-1 / nesfatin-1M30 / NUCB1-M30 to ICR mice, food intake", "format": "in vivo, mouse", "conditions": "0-3 hours", "protocol": "Each peptide of nesfatin-1N23, nesfatin-1M30 and nesfatin-1C29 used was a synthetic peptide of which production was referred to Biologica Co., Ltd. and was purified by HPLC to a purity of 95% or higher. Each peptide was prepared in physiological saline so as to contain 50 nmol per 200 μl, which was used as the sample, and as the control sample physiological saline (Vehicle) alone was used. Using a tuberculin syringe equipped with a 25G needle, 200 μl each of the samples was administered once into the abdominal cavity of each mouse (5 animals per group), and the time of administration was immediately before the start (6 p.m.) of the dark period. Mice used were male ICR mice (Nippon SLC) and the housing condition was similar to those in Working Example 18.\nEach mouse that received administration was placed in an individual cage, and during 0-3 hours after the administration the weight decreased of the pellet food was measured to determine the amount of food intake. For testing of significant difference, analysis of variance was used.\nEach peptide was prepared in physiological saline so as to contain 10 pmol per 100 μl, which was used as the sample for administration, and as the control sample physiological saline (Vehicle) alone was used. The physiological saline as the control and the peptide samples prepared were intraperitoneally administered at 100 μl per mouse (6 animals per group). Mice used were male ICR mice (Nippon SLC) and the housing condition and the experimental condition were similar to those in Working Example 18.\nEach of the prepared human nesfatin-1M30 and mouse NUCB1-M30 was prepared in physiological saline so as to contain 10 pmol per 100 μl, which was used as the sample for administration.\nThe physiological saline as the control and the peptide sample prepared were intraperitoneally administered at 100 μl per mouse (n=6 per group). Mice used were male ICR mice (Nippon SLC) and the housing condition and the experimental condition were similar to those in Working Example 18."}, "Wistar rats": {"tested_on": "Wistar rats", "test": "Administration of nesfatin-1, nesfatin-2, nesfatin-3, nesfatin-2/3 into the third ventricle, amount of food intake", "format": "in vivo, rat", "conditions": "for amount of food intake: 25 pmol into the third ventricle before dark period, 0-1 hr and 1-3 hr, vs control", "protocol": "Samples used for intracerebral administration were PBS alone (vehicle group), or nesfatin-1, nesfatin-2, nesfatin-3 or nesfatin-2/3 prepared in Working Example 10 each dissolved in PBS, and 25 pmol was administered per individual into the third ventricle immediately before the dark period. Rats used were Wistar rats (purchased from Nippon SLC) and were housed as in Working Example 6, and among 8-9 week-old male Wistar rats, those individuals weighing 200-250 g were selected and used (N=5). The technique of intraventricular administration and the measurement of the amount of food intake in rats were carried out in a method similar to those in Working Example 6. In the measurement of the amount of food intake, the reduced amount of food at 1 hour after administration (0-1 hr) and 2 hours after administration (1-3 hrs) was determined as food intake.\nIn the same condition above, 1, 5 or 25 pmol of nesfatin-1 as a sample was administered per rat individual into the third ventricle immediately before the dark period. In this experiment, the amount of food intake was determined at 1 hour after administration (0-1 hr).\nThe experimental condition was similar to that in Working Example 12, and 5 pmol of nesfatin-1 was administered into the third ventricle of the rat brain immediately before the start of the dark period, the amount decreased of the food (the amount of food intake) during 1 hour immediately after administration (0-1 hr), during 2 hours from 1 hour after the administration (1-3 hr), during 3 hours from 3 hours after the administration (3-6 hr), and during 6 hours from 6 hours after the administration (6-12 hr) was measured as the amount of food intake. As the control group, the amount of food intake by individuals that received physiological saline alone was measured.\nThe experimental condition was similar to that in Working Example 12, and for a group that received 5 pmol of nesfatin-1 alone into the third ventricle of the rat brain immediately before the start of the dark period and a group that received 5 pmol of nesfatin-1 and 8 μg of anti-nesfatin-1 antibody (nesfatin-1 IgG), the amount of food intake for 1 hour after administration was measured and compared to that for the control group (physiological saline alone was administered). Also, for a group that received only leptin (Rat leptin: R & D Systems, 598-LP-01M) (1 μg) which is known to have an activity of suppressing food intake by intraventricular administration and a group that received leptin and anti-nesfatin-1 antibody, its effect on food intake was also studied."}, "[1]": {"conditions": "10 pmol per 100 μl ip, Working Example 23, vs Vehicle"}, "[2]": {"conditions": "50 nmol per 200 μl ip, vs Vehicle"}, "[3]": {"conditions": "10 pmol per 100 μl ip, partial peptides of nesfatin-1M30, vs saline"}},
  "data": [
    {"molecule": "nesfatin-1M30: 30-amino acid partial peptide of mouse nesfatin-1 (SEQ ID NO: 41) (PDTGLYYDEYLKQVIEVLETDPHFREKLQK; listed as Mus musculus)", "values": [
      {"measurement": "amount of food intake", "setting": "ICR mice; [1]", "value": "significant effect of suppressing food intake"},
      {"measurement": "amount of food intake", "setting": "ICR mice; [2]", "value": "significant decrease"}
    ]},
    {"molecule": "nesfatin-1N23: amino acid numbers 1 to 23 of mouse nesfatin-1 (SEQ ID NO: 42) (VPIDVDKTKVHNTEPVENARIEP; listed as Mus musculus)", "values": [
      {"measurement": "amount of food intake", "setting": "ICR mice; [2]", "value": "no significant decrease or enhancement in the amount of food intake"}
    ]},
    {"molecule": "human nesfatin-1M30: human nesfatin-1M30 (SEQ ID NO: 39), chemical synthesis (PDTGLYYDEYLKQVIDVLETDKHFREKLQK; listed as Homo sapiens)", "values": [
      {"measurement": "amount of food intake", "setting": "ICR mice; [1]", "value": "significant effect of suppressing food intake"}
    ]},
    {"molecule": "N-LysGlnValIleGluValLeuGluThrAsp-C (KQVIEVLETD; listed as Mus musculus) [nesfatin-1M10M]", "values": [
      {"measurement": "amount of food intake", "setting": "ICR mice; [3]", "value": "significant effect of suppressing food intake"}
    ]},
    {"molecule": "N-ValLeuGluThrAspProHisPheArgGluLysLeuGlnLys-C (VLETDPHFREKLQK; listed as Mus musculus) [nesfatin-1M14]", "values": [
      {"measurement": "amount of food intake", "setting": "ICR mice; [3]", "value": "significant effect of suppressing food intake"}
    ]},
    {"molecule": "nesfatin-1C29: amino acid numbers 54 to 82 of mouse nesfatin-1 (SEQ ID NO: 43) (ADIEEIRSGRLSQELDLVSHKVRTRLDEL; listed as Mus musculus)", "values": [
      {"measurement": "amount of food intake", "setting": "ICR mice; [2]", "value": "no significant decrease or enhancement in the amount of food intake"}
    ]},
    {"molecule": "mouse NUCB1-M30: site of mouse NUCB1 corresponding to nesfatin-1M30 (SEQ ID NO: 103) (PDTGLYYHRYLQEVINVLETDGHFREKLQA; listed as Mus musculus)", "values": [
      {"measurement": "amount of food intake", "setting": "ICR mice; [1]", "value": "significant effect of suppressing food intake"}
    ]},
    {"molecule": "nesfatin-1M16: 16-amino acid partial peptide of mouse nesfatin-1M30 (SEQ ID NO: 71) (PDTGLYYDEYLKQVIE; listed as Mus musculus)", "values": [
      {"measurement": "amount of food intake", "setting": "ICR mice; [3]", "value": "significant effect of suppressing food intake"}
    ]},
    {"molecule": "B1", "values": [
      {"measurement": "amount of food intake for 1 hour after administration", "setting": "Wistar rats; given alone into the third ventricle (nesfatin-1 5 pmol; leptin 1 μg), vs saline control", "value": "decreased"}
    ]},
    {"molecule": "B2", "values": [
      {"measurement": "amount of food intake", "setting": "Wistar rats", "value": "did not exhibit any significant changes in the amount of food intake"}
    ]},
    {"molecule": "B3", "values": [
      {"measurement": "amount of food intake", "setting": "Wistar rats", "value": "did not exhibit any significant changes in the amount of food intake"}
    ]},
    {"molecule": "B4", "values": [
      {"measurement": "amount of food intake", "setting": "Wistar rats", "value": "did not exhibit any significant changes in the amount of food intake"}
    ]}
  ]
}
